According to PMC10252614 (International Journal of Molecular Sciences, 2023):

Legend:
hMAO-B = molecular target: T1, hMAO-B (Homo sapiens, UniProt P27338); assay: in vitro inhibition of hMAO-B, kynuramine fluorescence assay; assay type: biochemical
T1 construct: purchased Merck (Prague, Czech Republic)
T1 sequence (P27338 1-520): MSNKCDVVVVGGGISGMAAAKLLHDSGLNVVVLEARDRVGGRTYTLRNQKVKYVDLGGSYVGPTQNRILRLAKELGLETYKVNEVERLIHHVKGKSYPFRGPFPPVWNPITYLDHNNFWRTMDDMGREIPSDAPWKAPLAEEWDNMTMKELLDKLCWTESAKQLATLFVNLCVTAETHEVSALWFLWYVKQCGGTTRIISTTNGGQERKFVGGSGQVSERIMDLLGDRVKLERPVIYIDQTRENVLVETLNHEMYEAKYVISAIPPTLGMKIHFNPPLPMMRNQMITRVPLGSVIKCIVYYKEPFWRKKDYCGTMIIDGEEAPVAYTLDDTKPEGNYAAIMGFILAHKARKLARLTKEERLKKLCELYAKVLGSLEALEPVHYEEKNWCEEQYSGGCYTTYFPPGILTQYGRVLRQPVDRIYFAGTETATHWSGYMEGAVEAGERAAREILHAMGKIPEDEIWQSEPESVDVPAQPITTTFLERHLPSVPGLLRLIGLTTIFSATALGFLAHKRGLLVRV
Experimental: The hMAO-A and hMAO-B enzymes were purchased from Merck (Prague, Czech Republic). […] The mixture was pre-incubated at 37 °C for 15 min and subsequently substrate kynuramine was added to the final concentration of 100 µM. The final volume of reaction mixture was 0.1 mL. The whole reaction mixture was incubated at 37 °C for 30 min. The reaction was stopped by the addition of 20 µL 4M NaOH.

human BChE (hBChE) = molecular target: T2, human BChE (hBChE) (Homo sapiens, UniProt P06276); assay: hBChE inhibition, modified Ellman's method; assay type: biochemical; conditions: 10^-6 M
T2 construct: made in house
Experimental: (§1) N-Methylpropargylamine-quinazolines were tested for their inhibitory potency against human AChE (hAChE) and human BChE (hBChE) enzymes using the modified spectrophotometric method of Ellman et al..
(§2) The human recombinant BChE and AChE were prepared at the Department of Toxicology and Military Pharmacy (Faculty of Military Health Sciences, Hradec Kralove, Czech Republic). 5,5′-dithiobis(2-nitrobenzoic acid) (Ellman’s reagent, DTNB), phosphate buffer (PB, pH 7.4), acetylthiocholine (ATC) and butyrylthiocholine (BTC), were purchased from Sigma-Aldrich, Prague, Czech Republic. For measuring purposes, polystyrene Nunc 96-well microplates with a flat-bottom shape (ThermoFisher Scientific, Waltham, MA, USA) were utilized. All the assays were carried out in 0.1 M KH2PO4/K2HPO4 buffer, pH 7.4. Enzyme solutions were prepared at 2.0 units/mL in 2 mL aliquots. The assay medium consisted of a 0.1 M phosphate buffer (pH 7.4), 0.01 M DTNB, the enzyme, and 0.01 M substrate (ATC/BTC iodide solution). Concentration 1 µM was tested and the % of inhibition was calculated. Tested compounds were pre-incubated for 5 min. The reaction was started by immediate addition of 20 μL of the substrate. […] Each concentration was assayed in triplicate. Software GraphPad Prism 5 (San Diego, CA, USA) was used for the statistical data evaluation.

SH-SY5Y cells = assay: dehydrogenase activity, WST-1 test; assay type: cell-based, human; conditions: 100 µM, mean ± SD
Experimental: Next, we tested the effects of the compounds on intracellular dehydrogenase activity and glutathione levels. […] To evaluate the effects of the compounds on cells, we measured total intracellular dehydrogenase activity as a marker of cellular viability and glutathione levels for evaluation of oxidative stress (Table 6).
Dehydrogenase activity was evaluated by WST-1 test (Roche, Munich, Germany). The WST-1 test measures the activity of intra- and extra-mitochondrial dehydrogenases. […] The change of absorbance was measured by spectrophotometer at the wavelength of 440 nm using SPARK microplate reader (Tecan, Austria) while incubated at 37 °C. The dehydrogenase activity was expressed as the percentage of total cellular dehydrogenase activity relative to that in the control cells (control = 100%).

GluN1/GluN2B receptor = molecular target: T3, GluN1/GluN2B receptor (Homo sapiens, UniProt Q05586+Q13224); assay: whole-cell patch-clamp on HEK293 cells expressing GluN1/GluN2B NMDAR; assay type: cell-based; conditions: HEK293, 10 µM, −60 mV, ± SEM (n = 5–6), 100% = full inhibition; read-out: Relative inhibition (RI) of GluN1/GluN2B NMDAR
T3 construct: expressed in transfected cells; host or cells: HEK293
Experimental: We tested the derivatives by the whole-cell patch-clamp method at a concentration of 10 μM under steady-state conditions in the presence of the saturating concentrations of NMDAR (co-)agonists (L-glutamate and glycine). […] Whole-cell patch-clamp recordings were performed using an Axopatch 200B amplifier (Molecular Devices, LLC., San Jose, CA, USA) at a holding membrane potential of −60 mV. HEK293 cells were co-transfected with DNA vectors encoding human versions of the GluN1-4a (GluN1) and GluN2B subunits and green fluorescent protein (GFP) in a 1:1:1 ratio using 0.9 μL PolyMag reagent (OZ Biosciences SAS, Marseille, France) in 50 μL Opti-MEM I [56, 57]. After 15 min on a magnetic plate, HEK293 cells were trypsinized and resuspended in Opti-MEM I medium containing 1% FBS, 2 mM MgCl2 and 3 mM kynurenic acid (to reduce cell death caused by activation of NMDARs). Electrophysiological measurements were performed 24–48 h after completion of transfection at room temperature. The extracellular recording solution (ECS) contained (in mM): 160 NaCl, 2.5 KCl, 10 HEPES, 10 D-glucose, 0.2 EDTA, and 0.7 CaCl2 (pH 7.3 with NaOH). […] A microprocessor-controlled rapid perfusion system with a time constant for solution exchange around the recorded cell of ~20 ms was used. Currents were low-pass filtered at 2 kHz using an eight-pole Bessel filter, digitized at 5 kHz, and recorded using the pCLAMP 10 program (Molecular Devices, LLC., San Jose, CA, USA). The co-agonist glycine (100 µM) was applied throughout the recording, and the agonist L-glutamate (1 mM) was used to elicit responses of GluN1/GluN2B receptors.

[1] = test system: differentiated SH-SY5Y cells; assay: MTT viability of differentiated SH-SY5Y; assay type: cell-based, human; conditions: concentration equal to IC50 from undifferentiated model, 24 h
Experimental: Then, the differentiated SH-SY5Y cells were treated with concentrations corresponding to the IC50 values obtained from the cytotoxicity measurement using undifferentiated SH-SY5Y cells. Cells were exposed to a tested compound for 24 h. Then, the medium was replaced by a medium containing 10 μM of MTT and cells were allowed to produce formazan for another, approximately 3 h under surveillance. Thereafter, the medium was aspirated and purple crystals of MTT formazan were dissolved in 100 μL DMSO under shaking. Cell viability was assessed spectrophotometrically by the amount of formazan produced. Absorbance was measured at 570 nm with 650 nm reference wavelength on Spark (Tecan Group Ltd., Männedorf, Switzerland). The IC50 value was then calculated from the control-subtracted triplicates using non-linear regression (four parameters) of GraphPad Prism 9 software. Final IC50 and SEM values were obtained as a mean of three.

human AChE (hAChE) = molecular target: T4, human AChE (hAChE) (Homo sapiens, UniProt P22303); assay: hAChE inhibition, modified Ellman's method; assay type: biochemical; conditions: read-out: % of AChE inhibition
T4 construct: made in house
Experimental: as §1, §2

in vitro = conditions: human, undifferentiated SH-SY5Y cells
[2] = PAMPA prediction of BBB permeability; assay type: in vitro ADME
Experimental: The assay validation was performed using standard compounds whose CNS status is experimentally known from in vivo conditions.
PAMPA (the parallel artificial membrane-permeability assay) is a high-throughput screening tool applicable for prediction of the passive transport of potential drugs across the blood–brain barrier (BBB). In this study, it was used as a non-cell-based in vitro assay carried out in a coated 96-well membrane filter. The filter membrane of the donor plate was coated with PBL (Polar Brain Lipid, Avanti, USA) in dodecane (4 µL of 20 mg/mL PBL in dodecane) and the acceptor well was filled with 300 µL of PBS (pH 7.4; VA). The tested compounds were dissolved first in DMSO and subsequently diluted with PBS (pH 7.4) to final concentrations of 50–100 μM in the donor wells. […] About 300 µL of the donor solution was added to the donor wells (VD) and the donor filter plate was carefully put on the acceptor plate so that the coated membrane was “in touch” with both the donor solution and acceptor buffer. In principle, the test compound diffused from the donor well through the lipid membrane (Area = 0.28 cm^2) to the acceptor well. The concentration of the drug in both the donor and acceptor wells were assessed after 3, 4, 5, and 6 h of incubation in quadruplicate using the UV plate reader Spark (Tecan Group Ltd., Männedorf, Switzerland) at the maximum absorption wavelength of each compound. In addition, the solution of the theoretical compound concentration, simulating the equilibrium state established if the membrane were ideally permeable, was prepared and assessed as well.

T3 sequence (Q13224 27-1484, other chains not shown): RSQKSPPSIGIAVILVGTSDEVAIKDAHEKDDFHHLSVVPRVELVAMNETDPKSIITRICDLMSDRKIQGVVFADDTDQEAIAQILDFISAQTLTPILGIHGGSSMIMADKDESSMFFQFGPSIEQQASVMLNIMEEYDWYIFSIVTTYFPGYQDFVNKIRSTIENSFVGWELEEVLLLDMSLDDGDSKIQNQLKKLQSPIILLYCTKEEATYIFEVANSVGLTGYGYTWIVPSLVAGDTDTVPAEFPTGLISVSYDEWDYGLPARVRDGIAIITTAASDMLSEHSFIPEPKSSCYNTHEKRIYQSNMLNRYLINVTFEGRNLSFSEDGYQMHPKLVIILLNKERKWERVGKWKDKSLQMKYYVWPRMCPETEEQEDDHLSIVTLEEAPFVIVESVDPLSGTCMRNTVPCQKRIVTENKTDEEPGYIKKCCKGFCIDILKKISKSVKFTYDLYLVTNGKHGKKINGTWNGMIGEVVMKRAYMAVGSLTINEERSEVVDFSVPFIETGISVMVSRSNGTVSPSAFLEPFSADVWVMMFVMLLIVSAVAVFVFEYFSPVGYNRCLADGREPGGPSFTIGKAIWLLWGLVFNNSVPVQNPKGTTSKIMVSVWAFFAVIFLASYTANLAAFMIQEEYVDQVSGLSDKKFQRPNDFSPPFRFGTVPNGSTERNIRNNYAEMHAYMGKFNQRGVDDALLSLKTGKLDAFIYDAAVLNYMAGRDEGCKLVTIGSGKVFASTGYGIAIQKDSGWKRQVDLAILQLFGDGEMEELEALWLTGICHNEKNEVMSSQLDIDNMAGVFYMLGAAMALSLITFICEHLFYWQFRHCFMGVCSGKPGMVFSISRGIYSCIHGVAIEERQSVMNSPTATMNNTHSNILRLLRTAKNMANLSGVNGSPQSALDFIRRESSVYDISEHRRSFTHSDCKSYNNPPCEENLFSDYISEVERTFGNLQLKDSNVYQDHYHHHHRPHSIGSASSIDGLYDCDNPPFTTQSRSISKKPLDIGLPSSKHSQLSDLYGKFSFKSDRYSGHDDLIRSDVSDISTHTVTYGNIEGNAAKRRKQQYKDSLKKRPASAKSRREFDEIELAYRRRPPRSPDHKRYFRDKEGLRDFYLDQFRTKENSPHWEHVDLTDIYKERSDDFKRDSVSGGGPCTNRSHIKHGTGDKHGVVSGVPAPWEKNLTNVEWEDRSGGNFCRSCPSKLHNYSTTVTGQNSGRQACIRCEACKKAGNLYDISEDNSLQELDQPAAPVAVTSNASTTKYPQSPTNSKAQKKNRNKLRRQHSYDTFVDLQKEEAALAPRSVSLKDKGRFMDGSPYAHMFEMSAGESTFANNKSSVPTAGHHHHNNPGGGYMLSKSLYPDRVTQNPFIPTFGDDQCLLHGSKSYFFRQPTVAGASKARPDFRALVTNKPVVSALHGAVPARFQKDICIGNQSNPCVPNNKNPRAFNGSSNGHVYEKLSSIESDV
T4 sequence (P22303 32-614): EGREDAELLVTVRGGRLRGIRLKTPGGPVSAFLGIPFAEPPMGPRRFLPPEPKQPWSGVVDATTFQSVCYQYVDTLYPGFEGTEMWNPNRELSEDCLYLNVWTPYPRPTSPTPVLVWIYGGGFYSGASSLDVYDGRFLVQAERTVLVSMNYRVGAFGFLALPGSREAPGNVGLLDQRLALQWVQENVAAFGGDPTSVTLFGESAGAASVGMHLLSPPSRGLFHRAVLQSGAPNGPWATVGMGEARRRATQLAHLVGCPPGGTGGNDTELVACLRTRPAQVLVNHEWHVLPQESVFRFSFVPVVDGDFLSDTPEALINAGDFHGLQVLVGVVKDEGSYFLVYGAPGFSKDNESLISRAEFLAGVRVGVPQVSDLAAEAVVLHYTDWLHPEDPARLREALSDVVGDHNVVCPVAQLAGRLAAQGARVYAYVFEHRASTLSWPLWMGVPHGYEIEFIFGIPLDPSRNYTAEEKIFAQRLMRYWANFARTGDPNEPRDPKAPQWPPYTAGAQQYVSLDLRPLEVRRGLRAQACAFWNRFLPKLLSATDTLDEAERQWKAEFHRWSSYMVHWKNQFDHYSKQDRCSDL
T2 sequence (P06276 29-602): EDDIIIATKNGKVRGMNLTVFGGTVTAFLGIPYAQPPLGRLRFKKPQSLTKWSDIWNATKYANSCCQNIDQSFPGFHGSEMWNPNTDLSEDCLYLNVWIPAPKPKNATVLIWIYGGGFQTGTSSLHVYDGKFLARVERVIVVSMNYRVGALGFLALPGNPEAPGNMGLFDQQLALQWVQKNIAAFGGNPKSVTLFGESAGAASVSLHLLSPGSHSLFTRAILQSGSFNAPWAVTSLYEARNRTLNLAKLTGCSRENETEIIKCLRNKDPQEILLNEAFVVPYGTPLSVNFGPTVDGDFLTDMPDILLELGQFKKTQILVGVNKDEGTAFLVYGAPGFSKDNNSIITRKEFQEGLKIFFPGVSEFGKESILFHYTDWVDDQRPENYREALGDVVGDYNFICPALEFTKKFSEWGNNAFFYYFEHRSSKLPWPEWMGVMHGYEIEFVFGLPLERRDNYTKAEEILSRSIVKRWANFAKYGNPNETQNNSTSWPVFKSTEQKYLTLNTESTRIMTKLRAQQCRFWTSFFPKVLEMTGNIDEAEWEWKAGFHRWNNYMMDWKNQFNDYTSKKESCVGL

C#CCN(C)c1nc(NCCCC)c2ccc(Cl)cc2n1 [II-6e, N4-butyl-7-chloro-N2-methyl-N2-(prop-2-yn-1-yl)quinazoline-2,4-diamine]
IC50 (hMAO-B): 3.65 ± 0.14 µM | selectivity profile hMAO-A vs hMAO-B (in words) (hMAO-B): hMAO-B selective inhibitors | inhibition at 1 µM (human BChE (hBChE)): 0% | Dehydrogenase Activity (% of Control) (SH-SY5Y cells; 6 h): 63 ± 9 % of Control | Dehydrogenase Activity (% of Control) (SH-SY5Y cells; 24 h): 48 ± 9 % of Control | inhibition at 10 µM (GluN1/GluN2B receptor): 33.8 ± 2.56% | effect on viability of differentiated SH-SY5Y (in words) [1]: increased toxicity | inhibition at 1 µM (human AChE (hAChE)): 9% | IC50 at 24 h (in vitro): 67.1 ± 3.81 µM | BBB penetration by PAMPA (in words) [2]: did not penetrate the artificial barrier | CNS (+/−) ([2]; PAMPA class): CNS (−) (CNS (−) (low BBB permeation predicted): Pe (×10^−6 cm s^−1) < 2.0) | Papp ([2]; PAMPA, PBS pH 7.4, read-out: Pe ± SEM): 0.9 ± 0.43 ×10⁻⁶ cm/s
